Experimental data taken from ChEMBL document CHEMBL3352027, “Pharmacologically active metabolites, combination screening and target identification-driven drug repositioning in antituberculosis drug discovery” (2014).
≈ marks a conversion by molar mass, not a printed value.

test system: Mycobacterium tuberculosis; assay: Antitubercular activity against drug-resistant Mycobacterium tuberculosis; assay type: functional

`CN[C@@H]1[C@H](O)[C@H](NC)[C@H]2O[C@]3(O)[C@H](O[C@@H]2[C@H]1O)O[C@H](C)C[C@H]3NC(=O)Cc1ccc(Cl)cn1` was tested. Which MIC did it give?
Its MIC is 1.6 µg/mL (≈ 3.29 µM).

With `CN[C@@H]1[C@H](O)[C@H](NC)[C@H]2O[C@]3(O)[C@H](O[C@@H]2[C@H]1O)O[C@H](C)C[C@H]3NC(=O)CNC(C)(C)C` as the molecule, how does the MIC read?
Its MIC is 1.6 µg/mL (≈ 3.58 µM).

For `CN[C@@H]1[C@H](O)[C@H](NC)[C@H]2O[C@]3(O)[C@H](O[C@@H]2[C@H]1O)O[C@H](C)C[C@H]3NC(=O)Cc1ccccn1`, which MIC is on record?
Its MIC is 1.6 µg/mL (≈ 3.54 µM).

How did the MIC turn out when `CN[C@@H]1[C@H](O)[C@H](NC)[C@H]2O[C@]3(O)[C@H](O[C@@H]2[C@H]1O)O[C@H](C)C[C@H]3NC(=O)Cc1ccccc1` was run?
Its MIC is 1.6 µg/mL (≈ 3.54 µM).

Which MIC does the source give for `CN[C@@H]1[C@H](O)[C@H](NC)[C@H]2O[C@]3(O)[C@H](O[C@@H]2[C@H]1O)O[C@H](C)C[C@H]3NC(=O)Cc1ccc(F)cn1` here?
Its MIC is 1.6 µg/mL (≈ 3.4 µM).

How did the MIC turn out when `CN[C@@H]1[C@H](O)[C@H](NC)[C@H]2O[C@]3(O)[C@H](O[C@@H]2[C@H]1O)O[C@H](C)C[C@H]3NC(=O)Cc1cscn1` was run?
Its MIC is 1.6 µg/mL (≈ 3.49 µM).

`CN[C@@H]1[C@H](O)[C@H](NC)[C@H]2O[C@]3(O)[C@H](O[C@@H]2[C@H]1O)O[C@H](C)C[C@H]3NC(=O)Cc1cc(Cl)ccn1` was tested. Which MIC did it give?
Its MIC is 1.6 µg/mL (≈ 3.29 µM).
